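96-well plates; 48 h exposure; 5 concentrations. Endpoints by linear interpolation between flanking doses. Not reached: highest tested concentration assigned. At the GI50, growth is halved. TGI marks complete inhibition of growth.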
Tests used:
Assay in all cases: NCI tumour cell line growth inhibition, 48 h
[1] = system: A498 renal
[2] = system: NCI-H522 lung
[3] = system: OVCAR-5 ovarian
[4] = system: RPMI-8226 leukemia
[5] = system: SF-539 CNS
[6] = system: UACC-257 melanoma
[7] = system: A549 NSCLC
[8] = system: 786-0 renal
[9] = system: NCI-H23 lung
[10] = system: BT-549 breast
[11] = system: OVCAR-3 ovarian
[12] = system: SNB-19 CNS
[13] = system: SK-MEL-5 melanoma
[14] = system: RXF 393 renal
[15] = system: M14 melanoma
[16] = system: MDA-MB-435
[17] = system: SK-MEL-28 melanoma
[18] = system: MALME-3M melanoma
[19] = system: U251 CNS
[20] = system: UO-31 renal
[21] = system: SF-268 CNS
[22] = system: SNB-75 CNS
[23] = system: SK-OV-3 ovarian
[24] = system: SN12C renal
[25] = system: NCI/ADR-RES ovarian
[26] = system: CAKI-1 renal
[27] = system: HCC-2998 colon
[28] = system: HOP-62 NSCLC
[29] = system: SR leukemia
[30] = system: CCRF-CEM leukemia
[31] = system: HOP-92 NSCLC
[32] = system: T-47D breast
[33] = system: HT29 colon
[34] = system: EKVX NSCLC
[35] = system: UACC-62 melanoma
[36] = system: OVCAR-4 ovarian
[37] = system: PC-3 prostate
[38] = system: HL-60(TB) leukemia
[39] = system: HCT-15 colon
[40] = system: ACHN renal
[41] = system: SW-620 colon
[42] = system: KM12 colon
[43] = system: DU-145 prostate
[44] = system: IGROV1 ovarian
[45] = system: OVCAR-8 ovarian
[46] = system: SK-MEL-2 melanoma
[47] = system: COLO 205 colon
[48] = system: MDA-MB-231 breast
[49] = system: HS 578T breast
[50] = system: TK-10 renal
[51] = system: NCI-H226 lung
[52] = system: K-562 leukemia
[53] = system: HCT-116 colon
[54] = system: SF-295 CNS
[55] = system: NCI-H460 lung
[56] = system: MOLT-4 leukemia
[57] = system: MCF7 breast

CN1CCN(Cc2ccc(NC(=O)c3cnc(F)c(C#Cc4cnc(N)c5ncccc45)c3)cc2C(F)(F)F)CC1
GI50 [1]: 161 nM | TGI [1]: 963 nM | GI50 [2]: 204 nM | TGI [2]: 9960 nM | GI50 [3]: 417 nM | TGI [3]: 9270 nM | GI50 [4]: 332 nM | TGI [4]: 22700 nM | GI50 [5]: 199 nM | TGI [5]: 2830 nM | GI50 [6]: 339 nM | TGI [6]: 6510 nM | GI50 [7]: 321 nM | TGI [7]: 11900 nM | GI50 [8]: 448 nM | TGI [8]: 7860 nM | GI50 [9]: 485 nM | TGI [9]: 9590 nM | GI50 [10]: 1110 nM | TGI [10]: 9830 nM | GI50 [11]: 516 nM | TGI [11]: 9580 nM | GI50 [12]: 1940 nM | TGI [12]: 11900 nM | GI50 [13]: 735 nM | TGI [13]: 5050 nM | GI50 [14]: 122 nM | TGI [14]: 567 nM | GI50 [15]: 74.6 nM | TGI [15]: 601 nM | GI50 [16]: 141 nM | TGI [16]: 6090 nM | GI50 [17]: 126 nM | TGI [17]: 804 nM | GI50 [18]: 50.8 nM | TGI [18]: 234 nM | GI50 [19]: 252 nM | TGI [19]: 13200 nM | GI50 [20]: 140 nM | TGI [20]: 1160 nM | GI50 [21]: 324 nM | TGI [21]: 6350 nM | GI50 [22]: 643 nM | TGI [22]: 6470 nM | GI50 [23]: 263 nM | TGI [23]: 8700 nM | GI50 [24]: 161 nM | TGI [24]: 5570 nM | GI50 [25]: 480 nM | TGI [25]: 12500 nM | GI50 [26]: 110 nM | TGI [26]: 877 nM | GI50 [27]: 963 nM | TGI [27]: 9210 nM | GI50 [28]: 387 nM | TGI [28]: 9900 nM | GI50 [29]: 149 nM | TGI [29]: 50000 nM | GI50 [30]: 188 nM | TGI [30]: 20800 nM | GI50 [31]: 133 nM | TGI [31]: 1170 nM | GI50 [32]: 983 nM | TGI [32]: 22300 nM | GI50 [33]: 143 nM | TGI [33]: 6020 nM | GI50 [34]: 1530 nM | TGI [34]: 11300 nM | GI50 [35]: 103 nM | TGI [35]: 586 nM | GI50 [36]: 195 nM | TGI [36]: 8150 nM | GI50 [37]: 320 nM | TGI [37]: 10100 nM | GI50 [38]: 195 nM | TGI [38]: 4410 nM | GI50 [39]: 184 nM | TGI [39]: 7530 nM | GI50 [40]: 119 nM | TGI [40]: 5270 nM | GI50 [41]: 226 nM | TGI [41]: 5820 nM | GI50 [42]: 6.61 nM | TGI [42]: 6050 nM | GI50 [43]: 273 nM | TGI [43]: 7950 nM | GI50 [44]: 139 nM | TGI [44]: 7480 nM | GI50 [45]: 425 nM | TGI [45]: 22200 nM | GI50 [46]: 114 nM | TGI [46]: 451 nM | GI50 [47]: 190 nM | TGI [47]: 5330 nM | GI50 [48]: 189 nM | TGI [48]: 1140 nM | GI50 [49]: 183 nM | TGI [49]: 2110 nM | GI50 [50]: 679 nM | TGI [50]: 11600 nM | GI50 [51]: 121 nM | TGI [51]: 1940 nM | GI50 [52]: 5 nM | TGI [52]: 675 nM | GI50 [53]: 150 nM | TGI [53]: 2990 nM | GI50 [54]: 294 nM | TGI [54]: 9240 nM | GI50 [55]: 182 nM | TGI [55]: 6490 nM | GI50 [56]: 182 nM | TGI [56]: 8640 nM | GI50 [57]: 309 nM | TGI [57]: 5760 nM
